In patent publication US8236984B2, “Compound and use thereof in the treatment of amyloidosis” (Pentraxin Therapeutics Ltd., priority 2007, dated 2012):

Columns and labels:
[1] = biological target: transthyretin Ile122 (Homo sapiens, UniProt P02766); assay: Displacement of 125I-T4 from transthyretin in whole serum; assay type: binding; conditions: read-out: IC50 for displacement of T4 from transthyretin Ile122 in serum; whole serum of heterozygous subjects, mean
Source text: (§1) 3.2.3.2. Quantitative studies in serum. […] The immunoprecipitate was recovered by centrifugation, washed twice with 0.1 M Tris, 0.1 M NaCl, pH 8.0 and counted.

[2] = biological target: transthyretin Ala60 (Homo sapiens, UniProt P02766); assay: as above; assay type: binding; conditions: read-out: IC50 for displacement of T4 from transthyretin Ala60 in serum; whole serum of heterozygous subjects, mean
Source text: as §1

[3] = biological target: transthyretin Met30 (Homo sapiens, UniProt P02766); assay: as above; assay type: binding; conditions: read-out: IC50 for displacement of T4 from transthyretin Met30 in serum; whole serum of heterozygous subjects, mean
Source text: as §1

[4] = biological target: T1, transthyretin Tyr77 (Homo sapiens, UniProt P02766, S97Y); assay: as above; assay type: binding; conditions: whole serum of heterozygous subjects, mean
T1 construct: The displacement of T4 from transthyretin in whole serum; from tissue; host or cells: whole serum of heterozygous carriers
Source text: as §1

[5] = biological target: L55P variant transthyretin (Homo sapiens, UniProt P02766, L75P); assay: Mass spectrometric analysis of subunit exchange; assay type: biochemical; design: made in house; conditions: for subunit exchange of L55P transthyretin: in words
Method: 4.2 Mass spectrometric analysis of subunit exchange. Recombinant wild type, L55P and V30M transthyretin variants were biosynthetically labelled with isotopes [^15N] and [^15N, ^13C] as previously described (Keetch C A et al, 2005). Immediately prior to analysis, proteins were buffer exchanged into 20 mM ammonium acetate, pH 7.0 using Micro Biospin columns (Bio-Rad, UK). The subunit composition of transthyretin was monitored as a function of time by incubating an equimolar solution (4.4 μM) of [^15N] and [^15N, ^13C] labelled proteins in the presence of 2-fold molar excess of 4ajm15 in DMSO or 2.5% DMSO alone as a control. Each experiment was carried out in triplicate at room temperature and at 4° C. as well, since it is known that subunit exchange is accelerated at low temperatures. Nanoflow ESMS was performed on a QToF2 instrument (Waters/Micromass UK, Ltd.) modified for high mass operation (Sobott et al, (2002)) and calibrated externally using caesium iodide (100 mg/ml). Each solution, 1.5 μl, was electrosprayed from gold coated borosilicate capillaries prepared in-house as described (Nettleton E J, et al, 1998). To preserve the non-covalent interactions in the transthyretin tetramer, the MS parameters applied were: capillary voltage 1.6 kV, sample cone 160 V, extractor cone 20 V, ion transfer stage pressure 7.0×10 ^−3 mbar, quadrupole analyzer pressure 9.5×10^−4 mbar and ToF analyzer pressure 1.7×10^−6 mbar. Data were processed with MassLynx software (Waters/Micromass UK, Ltd.) and are presented with minimal smoothing and without background subtraction.
This most unstable transthyretin variant rapidly undergoes spontaneous and extensive subunit exchange, as illustrated in FIG. 8. FIGS. 9-11 show the effects of decreasing molar ratios of mds84 on inhibition of subunit exchange. […] At lower molar ratios of mds84 some exchange takes place but the transthyretin molecules which bind mds84 are still completely stabilized.

[6] = biological target: T2, L55P transthyretin (Homo sapiens, UniProt P02766, L75P); assay: Mass spectrometric analysis of ligand dissociation under increasing cone voltage; assay type: binding; conditions: equimolar 4.4 μM with wild type, 2 fold excess of ligand
T2 construct: made in house
Source text: (§2) 4.3. Mass spectrometric analysis of dissociation of 4ajm15 from wild type and amyloidogenic variant transthyretin. ESMS spectra were acquired under increasing cone voltage conditions to induce stepwise dissociation of the ligand from wild type transthyretin and amyloidogenic variants V30M and L55P transthyretin. As the cone voltage increases splitting becomes apparent in the tetramer peaks, corresponding to apo (protein alone) and holo (protein+ligand) transthyretin as ligand begins to dissociate.
(§3) L55P transthyretin and [^15N, ^13C] wild type transthyretin in a 2 fold excess of 4ajm15. […] In spectrum β the onset of 4ajm15 dissociation from wild type tetramer is observed (a) while no ligand dissociation is observed from L55P transthyretin. Dissociation from wild type transthyretin progresses with increasing collisional energy in spectrum γ, but it is not until spectrum δ, where approximately 50% of the wild type is apo, that ligand dissociation from L55P transthyretin is observed (a).

[7] = biological target: T3, transthyretin (Homo sapiens, UniProt P02766); assay: Stopped flow analysis of the kinetics of binding by transthyretin; conditions: 2 μM protein, 10 μM ligand, PBS pH 7.4, 5% DMSO, 20° C.
T3 construct: Native tetrameric transthyretin was purified from fractionated human plasma; from tissue; host or cells: human plasma
Method: 3.2.2 Stopped flow analysis of the kinetics of 4ajm15 binding by transthyretin. The kinetics of transthyretin binding to 4ajm15 were evaluated with a Bio-Logic SFM-300 stopped flow device coupled to a fluorescence detection system (Claix, France) using a cell path length of 1.5 mm. The excitation wavelength was 280 nm and emission was measured at wavelengths greater than 320 nm using a cut off filter. The experiments were performed at 20° C. in PBS pH 7.4 containing 5% DMSO with a final protein concentration of 2 μM in the presence of 10 μM 4ajm15. The kinetic traces fit well to a single-exponential function with a time constant of 2.17 s (±0.02 s). Transthyretin thus binds 4ajm15 very rapidly at physiological pH with the plateau of the quenching reaction being reached after only ˜11 sec.

[8] = biological target: wild type transthyretin (Homo sapiens, UniProt P02766); assay: Mass spectrometric analysis of ligand dissociation under increasing cone voltage; assay type: binding; design: made in house
Source text: as §2, §3
V30M transthyretin and [^15N, ^13C] wild type transthyretin in a 2 fold excess of ligand. In A, at the onset of 4ajm15 dissociation (spectrum β) the peak height corresponding to apo V30M transthyretin is lower than that for wild type (labelled a and a respectively) for each charge state. At high energy level (γ), ligand dissociation from wild type is complete while a proportion of […] V30M remains (h). […]

SMILES	IC50 [1] [µM]	IC50 [2] [µM]	IC50 [3] [µM]	IC50 [4] [µM]	subunit exchange of L55P transthyretin [5]	dissociation of ligand from L55P transthyretin [6]	proportion of wild type that is apo when dissociation from L55P is first observed (spectrum δ) [6]	time constant of binding (single-exponential fit) [7] [s]	time to plateau of the quenching reaction [7] [s]	peak height of apo wild type transthyretin at onset of dissociation (spectrum β) ([8]; equimolar 4.4 μM with V30M, 2 fold excess of ligand) [%]	relative binding avidities for ligand among transthyretin forms ([8]; wild type versus V30M and L55P, increasing cone voltage)	ligand bound per mole of transthyretin for complete stabilization ([5]; L55P variant, decreasing molar ratios of ligand)
O=C(O)c1ccccc1Nc1cc(Cl)c(OCCCCCCCCCCCOc2c(Cl)cc(Nc3ccccc3C(=O)O)cc2Cl)c(Cl)c1 [4ajm15, 2,2′-(4,4′-(undecane-1,11-diylbis(oxy))bis(3,5-dichloro-4,1-phenylene))bis(azanediyl)dibenzoic acid]	29.4	26.5	61.6	26.2	Exactly the same effect	only at higher collisional energy than wild type	approximately 50%	2.17	~11	~75	wild type transthyretin<V30M transthyretin<L55P transthyretin	
O=C(O)c1ccccc1Nc1cc(Cl)c(OCCCCCCCOc2c(Cl)cc(Nc3ccccc3C(=O)O)cc2Cl)c(Cl)c1 [mds84, 2,2′-(4,4′-(heptane-1,7-diylbis(oxy))bis(3,5-dichloro-4,1-phenylene))bis(azanediyl)dibenzoic acid]					completely inhibits all subunit exchange							one mole
